{"source": "EPA's ToxValDB 9.5 (doi:10.2903/j.efsa.2006.69r)", "key": {"[1]": {"conditions": "subchronic; duration: 56 days"}, "[2]": {"test_system": "Anas platyrhynchos"}, "[3]": {"test_system": "Apis mellifera", "conditions": "acute, mortality"}, "[4]": {"test_system": "Brassica rapa", "conditions": "acute; duration: 21 days; seedling emergence"}, "[5]": {"test_system": "Canidae", "conditions": "oral, Dog Other, neurology"}, "[6]": {"test_system": "Colinus virginianus", "conditions": "short-term; oral; diet; reproduction"}, "[7]": {"test_system": "Daphnia magna", "conditions": "chronic/long-term; duration: 21 days"}, "[8]": {"test_system": "Lepomis macrochirus", "conditions": "acute; duration: 96 hours; mortality"}, "[9]": {"test_system": "Pimephales promelas", "conditions": "chronic/long-term; duration: 32 days"}, "[10]": {"test_system": "Rattus norvegicus", "conditions": "for LD50: acute"}, "[11]": {"test_system": "Tagia sp."}, "[12]": {"test_system": "Aphidius rhopalosiphi", "experiment": "LR50; higher = less toxic", "conditions": "not reported; mortality"}, "[13]": {"conditions": "short-term, oral, feed, mortality"}}, "data": [{"smiles": "CNC(=O)Oc1cccc(N=CN(C)C)c1.Cl", "note": "[Formetanate hydrochloride]", "values": [{"measurement": "NOAEC", "setting": "[1]", "value": 0.703, "unit": "mg/L"}, {"measurement": "LD50", "setting": "[2]; acute, oral, unspecified, mortality", "value": 11.5, "unit": "mg/kg"}, {"measurement": "NOEC", "setting": "[2]; reproductive", "value": 15.6, "unit": "mg/kg-day"}, {"measurement": "LC50", "setting": "[2]; [13]", "value": 116, "unit": "mg/kg-day"}, {"measurement": "NOEC", "setting": "[2]; [13]", "value": 22.7, "unit": "mg/kg-day"}, {"measurement": "LD50", "setting": "[3]; dermal", "value": 1.02, "unit": "µg/piece"}, {"measurement": "LD50", "setting": "[3]; duration: 48 hours, oral, unspecified", "value": 0.16, "unit": "µg/piece"}, {"measurement": "NOEC", "setting": "[4]", "value": "> 500", "unit": "g/ha"}, {"measurement": "NOAEL", "setting": "[5]; chronic, duration: 1 years", "value": 0.4, "unit": "mg/kg-day"}, {"measurement": "NOAEL", "setting": "[5]; short-term, duration: 29 days", "value": 0.4, "unit": "mg/kg-day"}, {"measurement": "NOEC", "setting": "[6]", "value": 15.6, "unit": "mg/kg-day"}, {"measurement": "NOEC", "setting": "[7]", "value": 0.0011, "unit": "mg/L"}, {"measurement": "LC50", "setting": "[8]", "value": 2.76, "unit": "µg/mL"}, {"measurement": "NOEC", "setting": "[9]", "value": 0.48, "unit": "mg/L"}, {"measurement": "LD50", "setting": "[10]; oral, F, mortality", "value": 14.8, "unit": "mg/kg"}, {"measurement": "LD50", "setting": "[10]; oral, M/F, mortality", "value": 21, "unit": "mg/kg"}, {"measurement": "NOEL", "setting": "[10]; reproduction developmental, mortality", "value": 22.4, "unit": "mg/kg-day"}, {"measurement": "NOAEL", "setting": "[10]; short-term, duration: 28 days, oral, gavage, F, clinical chemistry", "value": 0.5, "unit": "mg/kg-day"}, {"measurement": "LC50", "setting": "[11]; acute, duration: 14 days, mortality", "value": 1050, "unit": "mg/kg"}, {"measurement": "NOEC", "setting": "[11]; chronic/long-term", "value": 1.8, "unit": "mg/kg"}, {"measurement": "LR50", "setting": "[12]", "value": 0.21, "unit": "g/ha"}]}]}
